Source: patent publication US20200255884A1, “METHOD OF DETECTION OF DNA END(S) AND ITS USE” (INTODNA SP. Z O.O., priority 2017, published 2020)

Tested on: HeLa 21-4 cells
Assay: DNA ends detection in fixed HeLa cells subjected to damaging agents (H2O2, Tpt), Procedure 1
Assay type: cell-based
Details: 30 min at 37 °C, H2O2 4 mM, Tpt 20 μM
Procedure: Procedure: • 1. Pre-preparation (optional): • Incubation of live cells with 0.5-10 mM Tris (5 min-1 h at room temperature (RT)), cells should be monitored for morphological abnormalities. • 2. Fixation and permeabilization: • a. Incubation with 1%-4% formaldehyde solution, 10-15 min, 4° C. (optional) • b. Incubation with an […] detergent (e.g. Triton X-100 (0.25-3%) 10 min-1 h, RT. (optional) • c. Incubation in 70% ethanol in water, 1 h minimum but preferred 12-18 h, −20° C., sample should be stable for several months. (optional but most preferred) • 3. Pre-blocking (optional): • a. Wash (PBS 1×5 min) • b. Streptavidin solution—incubation performed on a droplet, 30 min, RT • c. Wash (PBS 3×5 min) • d. Biotin solution—incubation performed on a droplet, 30 min, RT • e. Wash (PBS 3×5 min) • 4. Increasing accessibility of DNA ends: • Incubation with 0.5-10 mM EDTA in water, 10 min-1 h, RT. • 5. Incorporation procedure: • Incorporation of unmodified and modified nucleotides (e.g. BrdU) using terminal deoxynucleotidyl transferase: • a. incubation is performed on a droplet in a humid chamber • b. samples are rinsed in wash buffers • 6. Blocking: • Incubation with 1-5% BSA solution in PBS (from 1 h to overnight in 4° C., RT). • 7. Incubation with primary antibodies—performed on a droplet in a humid chamber: • a. primary antibodies type 1 (e.g. mouse monoclonal against BrdU), preferred dilution 1:100 in 1-5% BSA, 1 h, RT • b. wash (PBS 3×5 min) • c. primary antibodies type 2 (e.g. rabbit polyclonal against BrdU), preferred dilution 1:100 in 1-5% BSA, 1 h, RT • d. wash (PBS 3×5 min) • 8. PLA procedure: • a. incubation with PLA Probes diluted in 1% BSA (37° C., 60 min, reaction on a droplet, in a humid chamber) in 40 μl of the reaction mixture per one coverslip: • 8 μl of PLA Probe MINUS stock (e.g. anti-mouse) • 8 μl of PLA Probe PLUS stock (e.g. anti-rabbit) • 24 μl of 1% BSA • b. wash samples with Wash Buffer A (2×5 min) • c. ligation—incubation (37° C., 30 min, reaction on a droplet, in a humid chamber) in 40 μl of the reaction mixture per one coverslip: • 8 μl of 5× Ligation stock (Sigma, Duolink, DUO82009), • 31 μl of ultrapure, RNAse/DNAse free, distilled water, • 1 μl of Ligase (1 U/μl) (Sigma, Duolink, DUO82027 or DUO82029) • d. wash samples with Wash Buffer A (2×2 min) • e. amplification—incubation (37° C., 100 min, reaction performed on a droplet, in a humid chamber) in 40 μl of the reaction mixture per one coverslip: • 8 μl of 5× Amplification stock (Sigma, Duolink, DUO82060 or DUO82011), • 31.5 μl of ultrapure, RNAse/DNAse free, distilled water, • 0.5 μl of Polymerase (10 U/μl) (Sigma, Duolink, DUO82028 or DUO82030) • 9. Imaging of samples in PBS using a fluorescence microscope. […]

SMILES: OO [H2O2]
- percentage of cells that show signs of heavy DNA damage (apoptotic cells) in the population (untreated less than 5%): approximately 30%
- average number of detectable regions of incorporation of BrdU (free ends of DNA) per cell (± standard error of the mean): 31.57±8.61
